Type in all cases: cell-based
The subject of experiment [1] is asthmatic primary differentiated human airway epithelia. Put plainly: Flow cytometric cell cycle analysis (7-AAD) of BrdU+ cells from wounded asthmatic epithelia. Particulars: Example 2, wounded asthmatic epithelia, 2 h pulses at -26, -2, +22, +46 h. The protocol: (§1) On arrival, the in vitro epithelia were washed with phosphate buffered saline (PBS) and the basal medium was replaced with proprietary defined medium supplied by the manufacturer. Cells were equilibrated at 37° C. and 5% CO2 for 16 h followed by medium replacement with identical proprietary medium lacking glucocorticoids and epidermal growth factor (EGF). This condition was maintained for an additional 22 h. Upon completion (i.e. −26 h on the experimental timeline shown in FIG. 1, intermittent glucocorticoid exposures began: Dexamethasone (DEX) (20 nM) or PBS vehicle (VEH) was added to the apical and basolateral epithelial surfaces for 2 h. At −24 h, the medium was replaced with glucocorticoid- and EGF-free medium. This two-hour DEX/VEH pulse was repeated every 24 h (i.e. at −2, +22, and +46 h) thereafter until cell harvest at +48 h.
An in vitro epithelial injury model that allows for the study of epithelial repair processes in the lung was adapted for use in this study. Briefly, at 0 h on the timeline in FIG. 1, epithelia were scraped in two perpendicular lines with a p1000 pipette tip and placed in bromodeoxyuridine (BrdU)-containing (10 μM) medium. BrdU-containing medium was changed at +24 h following the DEX/VEH pulse mentioned previously. Epithelia were incubated at 37° C. and 5% CO2 until +48 h. In some experiments, wounds were imaged daily (i.e. 0, +24, +48 h) using a 16× phase contrast objective lens and wound area was measured in triplicate by a single operator blinded to the culture conditions using ImageJ Software (Rasband. ImageJ. Bethesda, Md., USA: U. S. National Institutes of Health; 1997-2009). Contrast was enhanced equally in all images to improve wound visualization.
Epithelia were washed once with PBS and harvested at +48 h (FIG. 1) for analysis by flow cytometry. A single cell suspension was achieved by exposure for 5 minutes with trypsin-ethylenediaminetetraacetic acid (EDTA) solution (#T3924; Sigma-Aldrich, St. Louis, Mo.) followed by filtration through a 40 μm strainer. Cells were simultaneously labeled with the following according to the manufacturers' protocols: 1) Carboxyfluorescein FLICA Apoptosis Poly-Caspase Detection Kit (Immunochemistry Technologies, LLC, Bloomington, Minn.) and 2) APC BrdU Flow Kit containing 7-AAD (amino-actinomycin-D) (BD Biosciences, San Jose, Calif.). Flow cytometry data were generated on a FACSCalibur™ System (BD Biosciences). Samples were gated to study 7-AAD content in BrdU^+FLICA^− cells. Data were analyzed by means of the cell cycle analysis feature of FlowJo 7.6 (Tree Star, Inc., Ashland, Oreg.) using a Watson (Pragmatic) model with equal coefficients of variation for the G1/G0 and G2/M peaks
Human fully-differentiated (air-liquid interface) normal (n=3) and asthmatic (n=3) primary airway epithelia, lacking inflammatory cells, were cultured in glucocorticoid-free medium beginning at −48 h. The cells were pulsed with mitotic cell cycle synchrony-inducing (i.e. dexamethasone, simvastatin) compounds or vehicle for 2 h at −26, −2, +22, and +46 h. Cultures were mechanically scrape-wounded at 0 h and thereafter exposed continuously to bromodeoxyuridine (BrdU) to identify mitotically active cells.

The subject of experiment [2] is normal primary differentiated human airway epithelia. Description: Mechanical scrape-wound healing (wound area, ImageJ), normal epithelia. Particulars: 20 nM 2 h pulses every 24 h. The protocol:
as §1
(§2) An in vitro epithelial injury model that allows for the study of epithelial repair processes in the lung was adapted for use in this study. […] In some experiments, wounds were imaged daily (i.e. 0, +24, +48 h) using a 16× phase contrast objective lens and wound area was measured in triplicate by a single operator blinded to the culture conditions using ImageJ Software (Rasband. ImageJ. Bethesda, Md., USA: U. S. National Institutes of Health; 1997-2009). […]

Experiment [3] concerns asthmatic primary differentiated human airway epithelia. Put plainly: Mechanical scrape-wound healing (wound area, ImageJ), asthmatic epithelia. Particulars: 20 nM 2 h pulses every 24 h. As to the method:
as §1, §2

For experiment [4], the system named is normal primary differentiated human airway epithelia. Put plainly: Flow cytometric cell cycle analysis (7-AAD) of BrdU+ cells from wounded normal epithelia. Particulars: with pulse DEX, +48 h. The protocol:
(§3) On arrival, the in vitro epithelia were washed with phosphate buffered saline (PBS) and the basal medium was replaced with proprietary defined medium supplied by the manufacturer. Cells were equilibrated at 37° C. and 5% CO2 for 16 h followed by medium replacement with identical proprietary medium lacking glucocorticoids and epidermal growth factor (EGF). This condition was maintained for an additional 22 h. […]
as §2
Epithelia were washed once with PBS and harvested at +48 h (FIG. 1) for analysis by flow cytometry. […] Data were analyzed by means of the cell cycle analysis feature of FlowJo 7.6 (Tree Star, Inc., Ashland, Oreg.) using a Watson (Pragmatic) model with equal coefficients of variation for the G1/G0 and G2/M peaks
Background: Flow cytometry measures light scatter and fluorescence of single cells or particles in a stream.

In experiment [5] the test system is asthmatic primary differentiated human airway (bronchial) epithelia. Description: BrdU flow cytometry of mitotically active cells after scrape-wounding, asthmatic epithelia. Particulars: wounded asthmatic epithelia, 20 nM 2 h pulses every 24 h, harvest +48 h, mean±SEM.
Excerpt: Normal (n=3) and asthmatic (n=6) primary differentiated human airway (i.e. bronchial) epithelia grown in 12-well plates on collagen-coated Transwell membrane inserts at an air-liquid interface were obtained commercially (#AIR-606 and #AIR-606-Asthma; MatTek Corporation, Ashland, Mass.). Donors underwent bronchoscopic brushing to acquire epithelial cells. Descriptive donor information provided by MatTek Corporation for the individuals from whom cells were obtained is shown in Table 1.
as §3, §2

Some results are limits rather than exact numbers.

On to `CCC(C)(C)C(=O)O[C@H]1C[C@@H](C)C=C2C=C[C@H](C)[C@H](CC[C@@H]3C[C@@H](O)CC(=O)O3)[C@H]21` [simvastatin], for which, in experiment [1], the “BrdU+ cells in G1/G0” value is 75±6%, the “BrdU+ cells in G2/M” value came out at 14±3% and the “BrdU+ cells in S” value is listed as 11±4%.

On to `C[C@@H]1C[C@H]2[C@@H]3CCC4=CC(=O)C=C[C@]4(C)[C@@]3(F)[C@@H](O)C[C@]2(C)[C@@]1(O)C(=O)CO` [DEX, Dexamethasone], for which, in experiment [2], the “wound area decrease from 0 to +48 h” value was 86.8±5.4%. For the same compound, in experiment [3], the “wound area decrease from 0 to +48 h” value is reported as 75.7±9%. The “BrdU+ cells in G1/G0” value in experiment [4] is reported as greater than 70%. Moreover, in experiment [1], the “BrdU+ cells in G1/G0” value amounted to 72±5%, the “BrdU+ cells in G2/M” value turned out to be 20±4% and the “BrdU+ cells in S” value was determined as 8±2%. In addition, the “BrdU+ cells, % of total cells” value in experiment [5] is on record as 0.55±0.13%.

These data come from patent publication US9861642B2, “Methods for diagnosing and treating asthma” (The Children's Research Institute, priority 2010, dated 2018).
